# Test results published in patent US11400107B2, “Cancer treatments” (NuCana plc, priority 2016, dated 2022).
# Entries after “also recorded” stand apart in the source; their conditions may differ.
# Key:
# Type in all cases: cell-based, human
# [1] = test system: Lin^−/CD34^+/CD38^−/CD123^+ cancer stem cells in KG1a cells; experiment: Immunophenotypic quantification of the leukaemic stem cell compartment in KG1a cells; conditions: for proportion of cancer stem cells as compared to non-stem cancer cells after treatment: 72 h; for selectivity for cancer stem cells as opposed to non-stem cancer cells (summary): summary statement of the description
# Procedure: The respective abilities of NUC-1031 and gemcitabine to target CSCs were investigated in the AML cell line KG1a.
# KG1a cells were cultured for 72 hours in the presence of a wide range of concentrations of each nucleoside analogue and their respective ProTides. Cells were then harvested and labelled with a cocktail of anti-lineage antibodies (PE-cy7), anti-CD34 (FITC), anti-CD38 (PE) and anti-CD123 (PERCP cy5). The sub-population expressing a leukaemic stem cell (LSC) phenotype were subsequently identified and were expressed as a percentage of all viable cells left in the culture. The percentages of stem cells remaining were then plotted on a dose-response graph and the proportion of cancer stem cells was compared across the various concentrations of ProTides and their respective parent compounds, in order to determine if they preferentially target cancer stem cells.
# (§1) The data obtained in these experiments were evaluated using one way ANOVA. All data was confirmed as Gaussian or a Gaussian approximation using the omnibus K2 test. LD50 values were calculated from the non-linear regression and line of best-fit analysis of the sigmoidal dose-response curves. All statistical analyses were performed using Graphpad Prism 6.0 software (Graphpad Software Inc., San Diego, Calif.).
# [2] = test system: primary acute myeloid leukaemia (AML) blasts; experiment: In vitro cytotoxicity assay (LD50) in primary acute myeloid leukaemia cells; conditions: for LD50: primary AML blasts, 48 h, concentration required to kill 50% of the tumour cells in culture; for potency as compared to the respective parent compound (summary): summary statement of the description
# Procedure: ProTide compounds, as defined herein, and the comparator ProTide compound NUC-1031 were assayed for their cytotoxic effects on primary cultures of acute myeloid leukaemia (AML) blasts. LD50 values (the concentration required to kill 50% of the tumour cells in culture) were calculated in respect of the ProTide compounds of the invention, and the parent compounds from which they are derived. […] The LD50 values of the ProTide compounds as defined herein (and their parent compounds) were compared with the comparator ProTide NUC-1031 and its parent compound gemcitabine.
# Bone marrow samples were collected in ethylenediaminetetraacetic acid (EDTA) from newly diagnosed, previously untreated, acute myeloid leukaemia (AML) patients. AML blasts were enriched by density gradient centrifugation using Histopaque (Sigma, Poole, UK) and were subsequently maintained in Roswell Park Memorial Institute medium (RPMI) supplemented with 10% foetal bovine serum (FBS). Cells were treated with ProTide compounds (either as encompassed by the present invention, or the comparator ProTide NUC-1031) or with the ProTides' parent compounds at a range of experimental concentrations, and incubated for 48 h. All cultures were maintained at 37° C. in a 5% CO2 humidified atmosphere.
# Cells were harvested and labelled with CD34-fluorescein isothiocyanate (FITC) (BD Biosciences, Buckingham, UK) and then resuspended in 200 μl of binding buffer containing 4 μl of annexin V labelled with allophycocyanin (APC) (eBioscience Ltd, Hatfield, UK). Apoptosis was quantified in the CD34^+ AML cells using an Accuri C6 flow cytometer (Becton Dickinson, CA, USA). At least 10,000 events were acquired and data were subsequently analysed using FlowJo software (Tree Star Inc., Ashland, Oreg., USA). All LD50 values (concentration of drug required to kill 50% of cells) were derived from the dose-response curves.
# KG1a cells = experiment: In vitro apoptosis / LD50 assay (Annexin V) in KG1a cells; conditions: for LD50: KG1a cells (FIG. 7A), 72 h
# Procedure: The acute myeloid leukaemia (AML) KG1a cell line was maintained in RPMI medium (Invitrogen, Paisley, UK) supplemented with 100 units/ml penicillin, 100 μg/ml streptomycin and 20% fetal calf serum. Cells were subsequently aliquoted (10^5 cells/100 μl) into 96-well plates and were incubated at 37° C. in a humidified 5% carbon dioxide atmosphere for 72 h in the presence of NUC-1031 or gemcitabine at concentrations that were experimentally determined for each compound. In addition, control cultures were carried out to which no drug was added. Cells were subsequently harvested by centrifugation and were analysed by flow cytometry using the Annexin V assay.
# Cultured cells were harvested by centrifugation and then resuspended in 195 μl of calcium-rich buffer. Subsequently, 5 μl of Annexin V (Caltag Medsystems, Botolph Claydon, UK) was added to the cell suspension and cells were incubated in the dark for 10 mins prior to washing. Cells were finally resuspended in 190 μl of calcium-rich buffer together with 10 μl of propidium iodide. Apoptosis was assessed by dual-colour immunofluorescent flow cytometry as described previously. Subsequently LD50 values (the dose required to kill 50% of the cells in a culture) were calculated for each nucleoside analogue and ProTide.
# as §1
Compound,proportion of cancer stem cells as compared to non-stem cancer cells after treatment ([1]; KG1a cells),LD50 [2],LD50 (KG1a cells) [µM],low concentration at which the selective reduction of cancer stem cells was still observed ([1]; KG1a cells),selectivity for cancer stem cells as opposed to non-stem cancer cells (summary) [1],potency as compared to the respective parent compound (summary) [2],potency relative to FUDR (times more potent) (KG1a cells; from LD50 values),selectivity against cancer stem cells compared to the parent compound ([1]; KG1a cells)
O=c1[nH]c(=O)n([C@H]2C[C@H](O)[C@@H](CO)O2)cc1F [FUDR],reduction in the proportion of cancer stem cells,FUDR 1.18 μM,1.18,,,,,
CCCCCOC(=O)[C@H](C)NP(=O)(OC[C@H]1O[C@@H](n2cc(F)c(=O)[nH]c2=O)CC1O)Oc1cccc2ccccc12 (some centres unmarked) [CPF-581],reduction in the proportion of cancer stem cells,CPF 581 0.027 μM,0.027,approximately 8×10^−8 M,selectively target for cancer stem cells; also recorded: high selectivity for cancer stem cells,greater potency,over 50 times,
C[C@H](NP(=O)(OC[C@H]1O[C@@H](n2cc(F)c(=O)[nH]c2=O)CC1O)Oc1ccccc1)C(=O)OCc1ccccc1 (some centres unmarked) [CPF-381],reduction in the proportion of cancer stem cells,CPF 381 0.039 μM,,approximately 8×10^−8 M,selectively target for cancer stem cells; also recorded: high selectivity for cancer stem cells,greater potency,,
C[C@H](NP(=O)(OC[C@H]1O[C@@H](n2cnc3c(=S)[nH]c(N)nc32)[C@@H](O)C1O)Oc1ccccc1)C(=O)OCc1ccccc1 (some centres unmarked) [CPF-782],strong reduction in the proportion of cancer stem cells,CPF 782 0.82 μM,,,selectively target for cancer stem cells; also recorded: high selectivity for cancer stem cells,greater potency,,most selective; also recorded: statistically significant increases in selectivity at certain concentrations
